PubChem BioAssay AID1959 (Broad Institute, 2009)
Activity calls are given as the source filed them.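 The calls were made as follows: active = growth-inhibition EC50 no more than tenfold above the top tested dose; inconclusive = flat fit between 30% and 70% inhibition, or unreliable fit; inactive = EC50 more than tenfold above the top tested dose.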

Test system: E. coli NEB5alpha growth, BacTiter-Glo luminescence, 4 h
Experiment: antibacterial activity against E. coli NEB5alpha – luminescence, counter-screen for MEX-5/POS-1 RNA-binding inhibitor project, dose response (AID 1959);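 also: pUC19-transformed ampicillin-resistant cells grown in LB with ampicillin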

Compound | EC50
COc1ccc(NS(=O)(=O)c2ccc3c(c2)[C@H]2C=CC[C@H]2[C@@H](c2ccc(C(=O)O)cc2)N3)cc1 | > 11 µM (inactive)
COC(=O)c1ccc(-n2c(C)cc(C(=O)COC(=O)CNS(=O)(=O)c3ccc(C)cc3)c2C)cc1 | > 11 µM (inactive)
CC(=O)N(C)c1ccc(N=Nc2c(C)[nH]n(C(N)=S)c2=O)cc1 | > 11 µM (inactive)
Cc1cccc(N=C2NC(=O)CS2)c1 | > 11 µM (inactive)
CN(C)C1C(=O)C(C(N)=O)=C(O)C2(O)C(=O)C3=C(O)c4c(O)cccc4C(C)(O)C3C(O)C12 (stereo not drawn) | 8.68 µM
CCOC(=O)c1c2ccc(OCC(=O)N/N=C/c3ccc(C)cc3)cc2n2ccccc12 | > 11 µM (inactive)
COc1ccc(C2C(C(=O)c3ccco3)=C(O)C(=O)N2c2nnc(C)s2)cc1OC (stereo not drawn) | > 11 µM (inactive)
C1=CC2c3ccccc3NC(c3ccncc3)C2C1 (stereo not drawn) | > 11 µM (inactive)
NS(=O)(=O)c1ccc(N=Nc2c[nH]c(=O)c(O)c2)cc1 | > 11 µM (inactive)
Cc1ccc(C)n1-c1ccc2c(c1)COC2=O | > 11 µM (inactive)
CN1C(=O)C(=Cc2cn(CC(=O)N3CCCCC3)c3ccccc23)C(=O)N(C)C1=O | > 11 µM (inactive)
O=C(O[C@@H]1Cc2c(O)cc(O)cc2O[C@@H]1c1cc(O)c(O)c(O)c1)c1cc(O)c(O)c(O)c1 | > 11 µM (inactive)
CN(C)Cc1cc(O)c(CN(C)C)cc1O | > 11 µM (inactive)
COc1cc(/C=N/Nc2nc(=O)[nH]nc2C)ccc1O | > 11 µM (inactive)
O=C1CSC(=S)N1/N=C/c1ccc(Cl)c([N+](=O)[O-])c1 | > 11 µM (inactive)
Oc1[nH]c2ccccc2c1N=Nc1cccc(Cl)c1 | > 11 µM (inactive)
Cc1cc(C(=O)O)ccc1-c1ccc(/C=C2\NC(=O)N(Cc3ccc(F)cc3)C2=O)o1 | > 11 µM (inactive)
CCC(=O)OC1(C)C(=O)C=C2C=C(CCCC(=O)OC)OC=C2C1=O (stereo not drawn) | > 11 µM (inactive)
CS/C(=N\S(=O)(=O)c1cccs1)Nc1cccc(Cl)c1C | > 11 µM (inactive)
CC(=O)c1ccc2c(c1)C1C=CCC1C(c1cc3c(cc1Br)OCO3)N2 (stereo not drawn) | > 11 µM (inactive)
CCN(CC)c1ccc2cc(NC(=O)CCC(=O)O)c(=O)oc2c1 | > 11 µM (inactive)
CC(=O)N(C1=C(Cl)C(=O)c2ccccc2C1=O)C1CCCCC1 | > 11 µM (inactive)
Cc1nn(-c2ccccc2)c(N2CCCC2)c1/C=N/NC(=O)c1cc(-c2cccnc2)nc2ccccc12 | > 11 µM (inactive)
O=C(c1ccco1)N1CCc2ccccc21 | > 11 µM (inactive)

Compound | EC50
O=S(=O)(Nc1cc(Sc2cccc3cccnc23)c(O)c2ccccc12)c1ccc(F)cc1 | > 11 µM (inactive)
Cc1cccc(N=Nc2c(O)[nH]c3ccc(Br)cc23)c1 | > 11 µM (inactive)
O=C(NNC(=S)NC(=O)c1ccccc1[N+](=O)[O-])c1ccccc1O | > 11 µM (inactive)
Oc1ccc(CCNc2c3ccccc3nc3ccccc23)cc1O | > 11 µM (inactive)
Cc1cccn2c(=O)c3cc(C(=O)NCC4CCCO4)c(=N)n(CCc4ccccc4)c3nc12 (stereo not drawn) | > 11 µM (inactive)
CCN1CCN(C(=O)c2ccc3c(=O)n(Cc4ccccc4OC)c(=S)[nH]c3c2)CC1 | > 11 µM (inactive)
O=C1c2ccccc2C(=O)c2c1cccc2N(CCO)CCO | > 11 µM (inactive)
COc1cc(N=Cc2c(O)c3ccccc3oc2=O)c(OC)cc1Cl | > 11 µM (inactive)
Cc1nc2c3ccccc3nc(NNC(=O)CCC(=O)N3CCCC(C)C3)n2n1 (stereo not drawn) | > 11 µM (inactive)
COC(=O)CCCC1=CC2=CC(=O)C(C)(OC(=O)c3cccs3)C(=O)C2=CO1 (stereo not drawn) | > 11 µM (inactive)
CC(=Nc1ccc(Br)cc1)c1sc2ccccc2c1O | > 11 µM (inactive)
CCOC(=O)N1CCN(CC(=O)c2ccc(O)cc2O)CC1 | > 11 µM (inactive)
O=C(O)c1ccc(-n2cccc2/C=C2/NC(=O)N(c3ccccc3)C2=O)cc1 | > 11 µM (inactive)
CC1(OC(=O)c2cnc3ccccc3n2)C(=O)C=C2C=C(c3ccc(C#N)cc3)OC=C2C1=O (stereo not drawn) | > 11 µM (inactive)
N#Cc1ccccc1CN1C(=O)S/C(=C/c2cccn2-c2cccc(C(=O)O)c2)C1=O | > 11 µM (inactive)
CCOc1ccc2c(c1)/C(=C(\C(Cl)=C(Cl)Cl)[N+](=O)[O-])N2 | > 11 µM (inactive)
CN1CCc2c(sc(NC(=O)c3ccc4ccccc4c3)c2C(N)=O)C1 | > 11 µM (inactive)
O=C(N[C@H]1CP(=O)(Oc2ccccc2)O[C@H](COCc2ccccc2)[C@H]1O)C(Cl)(Cl)Cl (stereo partly drawn) | > 11 µM (inactive)
O=C(N/N=C/c1c(O)n(Cc2ccc(F)cc2)c(=O)[nH]c1=O)c1ccccc1O | > 11 µM (inactive)
c1ccc(-c2nc(-c3ccccn3)nc(-c3ccccn3)n2)nc1 | > 11 µM (inactive)
COC(=O)c1ccccc1-n1cccc1C(=O)NP(=O)(N1CCOCC1)N1CCOCC1 | > 11 µM (inactive)
O=c1[nH][nH]c2cc(=O)n(-c3ccc(Cl)cc3)nc12 | > 11 µM (inactive)
Cc1ccc(NC(=O)CN2C(=O)S/C(=C\c3cccn3-c3cccc(C(=O)O)c3)C2=O)c(C)c1 | > 11 µM (inactive)
Cc1cccc(NC(=O)/C(C#N)=C\c2cc(C)n(-c3ccc(C(=O)O)cc3)c2C)c1 | > 11 µM (inactive)

Compound | EC50
Cc1nc(S/C(=C\c2ccc(-c3ccc(C(=O)O)c(Cl)c3)o2)C(=O)O)n[nH]1 | > 11 µM (inactive)
Oc1ccc(-c2cnns2)c(O)c1 | > 11 µM (inactive)
COc1ccc(-n2cc(CNCc3cnc4ccccn34)c(-c3cccc(F)c3)n2)cc1 | > 11 µM (inactive)
COc1cc([N+](=O)[O-])cc(/C=N/NC(=O)CC#N)c1O | > 11 µM (inactive)
COc1ccc(C2C(C(C)=O)=C(C)N=c3s/c(=C\c4cc(C)n(C)c4C)c(=O)n32)c(OC)c1 (stereo not drawn) | > 11 µM (inactive)
CCOC(=O)c1ccc(N/C=C2\CCCCC2=O)cc1 | > 11 µM (inactive)
Cc1cc(/C=C2\C(=O)NC(=O)N(c3ccc(Cl)cc3)C2=O)c(C)n1-c1cccc(C(=O)O)c1 | > 11 µM (inactive)
CCOC(=O)c1c(-c2ccccc2)csc1NC(=O)/C(C#N)=C/c1ccc(OC)c(OC)c1 | > 11 µM (inactive)
CCOC(=O)/C=c1\s/c(=C\c2ccc3cc(OC)ccc3c2)c(=O)n1CC(=O)NCC1CCCO1 (stereo not drawn) | > 11 µM (inactive)
COc1ccc(CNC(=O)c2cnc3cc(C)ccn3c2=O)cc1 | > 11 µM (inactive)
Cc1ccc(-c2ccccc2)n1-c1ccc(C(=O)O)cc1 | > 11 µM (inactive)
COc1ccc(C2=CC3=C(Br)C(=O)C(C)(OC(=O)C4CCCC4)C(=O)C3=CO2)cc1 (stereo not drawn) | > 11 µM (inactive)
CCc1c(C(=O)NNC(=S)Nc2ccc(S(=O)(=O)Nc3ncccn3)cc2)csc1C | > 11 µM (inactive)
CC1(C)CC(=O)C2=C(C1)OC(N)=C(C#N)C2c1ccc(OC(=O)N2CCOCC2)cc1 (stereo not drawn) | > 11 µM (inactive)
Cc1ccc2oc(=O)c(/C=C(\O)CC(C)C)nc2c1 | > 11 µM (inactive)
COC(=O)CCC(=O)OC1(C)C(=O)C2=CN(CCc3ccccn3)C(c3ccc(OC)cc3)=CC2=C(Br)C1=O (stereo not drawn) | > 11 µM (inactive)
O=C(CN1C(=O)/C(=C\C=C\c2ccccc2)SC1=S)Nc1ccc(F)cc1 | > 11 µM (inactive)
CCOc1ccc(-n2c(O)c(C=Nc3ccc(N4CCOCC4)cc3)c(=O)[nH]c2=O)cc1 | > 11 µM (inactive)
O=C(N/N=C/c1ccc(O)c(O)c1)N/N=C/c1ccc(O)c(O)c1 | > 11 µM (inactive)
N#CC(C#N)=Cc1ccc(-c2ccc(S(=O)(=O)N=C(N)N)cc2)o1 | > 11 µM (inactive)
CCN(CC)c1ccc(C=N/C(C#N)=C(\N)C#N)cc1 | > 11 µM (inactive)
COc1ccc(OC)c(/C=c2\sc3nc(-c4cccs4)nn3c2=O)c1 | > 11 µM (inactive)
O=[N+]([O-])c1cccc(/C=C/c2nc(C=Nc3ccccc3)c(O)o2)c1 | > 11 µM (inactive)
O=C(CCN1C(=O)C2CC=C(Cl)CC2C1=O)N1CCCCC1 (stereo not drawn) | > 11 µM (inactive)

Compound | EC50
Cc1cc(/C=C2\C(=O)NC(=O)N(Cc3ccccc3)C2=O)c(C)n1C1CC1 | > 11 µM (inactive)
Cc1cc(=O)n2[nH]c(=O)c(N=Nc3ccccc3)c2[nH]1 | > 11 µM (inactive)
O=Cc1c(-c2ccccc2)nc2ccccn12 | > 11 µM (inactive)
C[C@@H]1O[C@@H](Oc2c(-c3cc(O)c(O)c(O)c3)oc3cc(O)cc(O)c3c2=O)[C@H](O)[C@H](O)[C@H]1O | > 11 µM (inactive)
CN(C)c1ccc(N=Cc2nc(-c3ccccc3)oc2O)cc1 | > 11 µM (inactive)
CN(C)c1ccc(/C=C/c2nc3ccccc3s2)cc1 | > 11 µM (inactive)
COc1cc(/C=N/Nc2nc(=O)[nH]nc2C)cc([N+](=O)[O-])c1O | > 11 µM (inactive)
CCOc1cccc(C2C(C(=O)c3ccc(C)o3)=C(O)C(=O)N2c2nccs2)c1 (stereo not drawn) | > 11 µM (inactive)
CCCCCCCCCCCCCCCCn1cc[n+](C)c1 | 9.41 µM
Cc1cc(C(=O)O)ccc1-n1c(C)cc(/C=C(/C#N)C(=O)Nc2ccccc2)c1C | > 11 µM (inactive)
CC(C)(C)c1ccc(C(=O)Nc2cccc3ncccc23)cc1 | > 11 µM (inactive)
CCC(C)n1c(=N)c(C#N)cc2c(=O)n3cccc(C)c3nc21 (stereo not drawn) | > 11 µM (inactive)
CCN(CC)C(=O)c1cc2c(=O)c3cc(Cl)ccc3oc2nc1C | > 11 µM (inactive)
CCN1C(=O)/C(=C/c2c(C)nn(C)c2C)SC1=S | > 11 µM (inactive)
CC(C)N1CCc2c(sc(NC(=O)c3ccc(S(=O)(=O)N(C)CC4CCCO4)cc3)c2C(N)=O)C1 (stereo not drawn) | > 11 µM (inactive)
CC(/C=C1\N=C(SCc2ccccc2Cl)SC1=O)=C\c1ccccc1 | > 11 µM (inactive)
Cc1cc(/C=C(/C#N)c2nc3ccccc3[nH]2)c(C)n1-c1ccccc1C(=O)O | > 11 µM (inactive)
O=C(N/N=C/c1cccn1-c1cccc(C(=O)O)c1)Nc1ccccc1 | > 11 µM (inactive)
Cc1nc2ccccc2c2oc(C(=O)Nc3ccc4c(c3)OCCO4)cc12 | > 11 µM (inactive)
COc1ccc(C2C(C#N)=C(N)OC3=C2C(=O)CCC3)c(OC)c1OC (stereo not drawn) | > 11 µM (inactive)
COc1ccc2c(c1)S/C(=C\C(=O)c1ccncc1)N2C | > 11 µM (inactive)
